Data taken from ChEMBL document CHEMBL1201862, “PubChem BioAssay data set” (2004).
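Interpolation was linear, between the two tested concentrations surrounding the appropriate level; five concentrations were tested over 48 hours in 96-well plates. GI50: concentration for 50% inhibition of growth.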 The source made the active and inactive calls. No stated cut-off is given here; in the data, active = GI50 up to about 1.1 µM and inactive = higher.

Assays:
Assay in all cases: growth of human tumour cells (NCI), 48 h
HOP-92 = system: HOP-92
HT-29 = system: HT-29
NCI-H522 = system: NCI-H522
SNB-78 = system: SNB-78
SK-MEL-28 = system: SK-MEL-28
RPMI-8226 = system: RPMI-8226
A549 = system: A549
CCRF-CEM = system: CCRF-CEM
UACC-62 = system: UACC-62
LOX IMVI = system: LOX IMVI
UO-31 = system: UO-31
KM12 = system: KM12
OVCAR-4 = system: OVCAR-4
CAKI-1 = system: CAKI-1
NCI-H23 = system: NCI-H23
SF-268 = system: SF-268
MCF7 = system: MCF7
DLD-1 = system: DLD-1
DMS-273 = system: DMS-273
UACC-257 = system: UACC-257
NCI/ADR-RES = system: NCI/ADR-RES
DMS-114 = system: DMS-114
SK-MEL-5 = system: SK-MEL-5
KM-20L2 = system: KM-20L2
SK-MEL-2 = system: SK-MEL-2
SF-539 = system: SF-539
HCT-116 = system: HCT-116
Malme-3M = system: Malme-3M
MOLT-4 = system: MOLT-4
NCI-H460 = system: NCI-H460
RXF 393 = system: RXF 393
SNB-19 = system: SNB-19
COLO 205 = system: COLO 205
HL-60 = system: HL-60
IGROV-1 = system: IGROV-1
HOP-18 = system: HOP-18
NCI-H226 = system: NCI-H226
EKVX = system: EKVX
XF498 = system: XF498
A498 = system: A498
HOP-62 = system: HOP-62
SNB-75 = system: SNB-75
SN12C = system: SN12C
SF-295 = system: SF-295
OVCAR-3 = system: OVCAR-3
OVCAR-5 = system: OVCAR-5
SK-OV-3 = system: SK-OV-3
HCT-15 = system: HCT-15
U-251 = system: U-251
OVCAR-8 = system: OVCAR-8
M19-MEL = system: M19-MEL
HCC 2998 = system: HCC 2998
SW-620 = system: SW-620
K562 = system: K562

CN(C)CCSc1nccc(-c2ccc(-c3ccnc(SCCN(C)C)n3)s2)n1
GI50 (HOP-92): 10.9 µM (inactive) | GI50 (HT-29): 2.57 µM (inactive) | GI50 (NCI-H522): 15.9 µM (inactive) | GI50 (SNB-78): 13 µM (inactive) | GI50 (SK-MEL-28): 19.1 µM (inactive) | GI50 (RPMI-8226): 2.69 µM (inactive) | GI50 (A549): 12.4 µM (inactive) | GI50 (CCRF-CEM): 1.43 µM (inactive) | GI50 (UACC-62): 15.3 µM (inactive) | GI50 (LOX IMVI): 3.42 µM (inactive) | GI50 (UO-31): 4.94 µM (inactive) | GI50 (KM12): 4.91 µM (inactive) | GI50 (OVCAR-4): 4.13 µM (inactive) | GI50 (CAKI-1): 13.5 µM (inactive) | GI50 (NCI-H23): 11.2 µM (inactive) | GI50 (SF-268): 8.17 µM (inactive) | GI50 (MCF7): 4.45 µM (inactive) | GI50 (DLD-1): 4.81 µM (inactive) | GI50 (DMS-273): 8.3 µM (inactive) | GI50 (UACC-257): 16.7 µM (inactive) | GI50 (NCI/ADR-RES): 4.91 µM (inactive) | GI50 (DMS-114): 11.9 µM (inactive) | GI50 (SK-MEL-5): 15.9 µM (inactive) | GI50 (KM-20L2): 7.36 µM (inactive) | GI50 (SK-MEL-2): 13.6 µM (inactive) | GI50 (SF-539): 6.87 µM (inactive) | GI50 (HCT-116): 3.33 µM (inactive) | GI50 (Malme-3M): 11.9 µM (inactive) | GI50 (MOLT-4): 0.76 µM (active) | GI50 (NCI-H460): 3.01 µM (inactive) | GI50 (RXF 393): 6.14 µM (inactive) | GI50 (SNB-19): 11.1 µM (inactive) | GI50 (COLO 205): 9.4 µM (inactive) | GI50 (HL-60): 2.37 µM (inactive) | GI50 (IGROV-1): 12.6 µM (inactive) | GI50 (HOP-18): 27.2 µM (inactive) | GI50 (NCI-H226): 12.9 µM (inactive) | GI50 (EKVX): 18.2 µM (inactive) | GI50 (XF498): 15.6 µM (inactive) | GI50 (A498): 15.1 µM (inactive) | GI50 (HOP-62): 15.9 µM (inactive) | GI50 (SNB-75): 14.4 µM (inactive) | GI50 (SN12C): 6.75 µM (inactive) | GI50 (SF-295): 10.7 µM (inactive) | GI50 (OVCAR-3): 13.4 µM (inactive) | GI50 (OVCAR-5): 9.1 µM (inactive) | GI50 (SK-OV-3): 19.1 µM (inactive) | GI50 (HCT-15): 4.65 µM | GI50 (U-251): 12.9 µM (inactive) | GI50 (OVCAR-8): 6.1 µM (inactive) | GI50 (M19-MEL): 9.42 µM (inactive) | GI50 (HCC 2998): 6.08 µM (inactive) | GI50 (SW-620): 3.18 µM (inactive) | GI50 (K562): 6.08 µM (inactive)
